Publication PMC4726752, “Coenzyme Q Biosynthesis: Evidence for a Substrate Access Channel in the FAD-Dependent Monooxygenase Coq6” (PLoS Computational Biology, 2016)

Tests used:
[1] = molecular target: T1, Coq6p-MBP (Coq6p) (Saccharomyces cerevisiae, UniProt P53318); conditions: co-purified cofactor; tetrameric Coq6p-MBP, purified in Tris-HCl pH 7.5
T1 construct: gene COQ6

[2] = molecular target: the molecule itself; experiment: SEC; gel filtration on Superdex 200 10/300 GL calibrated with standards of known molecular mass (Bio-Rad); purified Coq6p-MBP

T1 sequence (P53318 whole entry): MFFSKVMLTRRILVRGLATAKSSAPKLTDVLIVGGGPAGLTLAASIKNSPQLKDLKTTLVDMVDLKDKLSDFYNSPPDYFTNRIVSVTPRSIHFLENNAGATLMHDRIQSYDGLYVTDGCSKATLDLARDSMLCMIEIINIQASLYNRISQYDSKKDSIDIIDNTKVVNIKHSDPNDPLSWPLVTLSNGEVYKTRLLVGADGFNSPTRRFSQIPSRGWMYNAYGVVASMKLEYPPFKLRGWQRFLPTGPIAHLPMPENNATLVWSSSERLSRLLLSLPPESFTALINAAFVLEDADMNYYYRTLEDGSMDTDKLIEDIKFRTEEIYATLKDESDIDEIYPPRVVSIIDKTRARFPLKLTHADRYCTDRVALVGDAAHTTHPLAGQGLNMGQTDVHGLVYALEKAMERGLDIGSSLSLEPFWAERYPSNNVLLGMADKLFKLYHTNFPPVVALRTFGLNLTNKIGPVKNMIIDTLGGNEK

Cc1cc2nc3c(=O)[nH]c(=O)nc-3n(C[C@H](O)[C@H](O)[C@H](O)COP(=O)(O)OP(=O)(O)OC[C@H]3O[C@@H](n4cnc5c(N)ncnc54)[C@H](O)[C@@H]3O)c2cc1C [FAD]
FAD occupancy per monomer [1]: ~ 85%

B1: Coq6p-MBP fusion protein (enzyme, S. cerevisiae, UniProt P53318 18-479, looked up)
chain: ATAKSSAPKLTDVLIVGGGPAGLTLAASIKNSPQLKDLKTTLVDMVDLKDKLSDFYNSPPDYFTNRIVSVTPRSIHFLENNAGATLMHDRIQSYDGLYVTDGCSKATLDLARDSMLCMIEIINIQASLYNRISQYDSKKDSIDIIDNTKVVNIKHSDPNDPLSWPLVTLSNGEVYKTRLLVGADGFNSPTRRFSQIPSRGWMYNAYGVVASMKLEYPPFKLRGWQRFLPTGPIAHLPMPENNATLVWSSSERLSRLLLSLPPESFTALINAAFVLEDADMNYYYRTLEDGSMDTDKLIEDIKFRTEEIYATLKDESDIDEIYPPRVVSIIDKTRARFPLKLTHADRYCTDRVALVGDAAHTTHPLAGQGLNMGQTDVHGLVYALEKAMERGLDIGSSLSLEPFWAERYPSNNVLLGMADKLFKLYHTNFPPVVALRTFGLNLTNKIGPVKNMIIDTLGGNEK
notes: Coq6p, FAD-dependent monooxygenase of ubiquinone biosynthesis, S. cerevisiae, UniProt P53318; coq6 gene optimised for E. coli and cloned in pMAL-c2X between BamHI and EcoRI downstream of malE; Printed mass of the fusion is 96.3 kDa with an MBP tag of 45 kDa, which would fit the whole 479-residue Coq6p (my surmise); source: E. coli BL21 (DE3) co-transformed with pMALc2x-Coq6p and pGro7 …
stoichiometry N [2]: 4
